Reference: ChEMBL document CHEMBL6103619, “Discovery of a Novel CRBN-Recruiting cGAS PROTAC Degrader for the Treatment of Ulcerative Colitis” (J Med Chem, 2025)
Activity calls are given as the source filed them. The calls are words filed in the database; no cut-off is given here.

Legend:
[1] = tested on: THP-1; experiment: Inhibition of ds-DNA induced cGAS-STING signaling pathway in human THP-1 cells assessed as reduction in STING phosphorylation preincubated with compound for 40 hrs followed by HT-DNA addition and measured after 8 hrs by Western blot analysis; type: cell-based; settings: dose 0.7-20 µM, time 48.0 hrs
[2] = target: T1, Protein cereblon/Cyclic GMP-AMP synthase (Homo sapiens, UniProt Q96SW2+Q8N884); experiment: PROTAC activity at CRBN/cGAS in human THP-1 cells assessed as induction of cGAS degradation at 10 uM preincubated with compound for 40 hrs followed by HT-DNA stimulation and measured after 8 hrs by Western blot analysis relative to control; type: cell-based; settings: time 48.0 hrs
Target sequence in this assay (Q8N884 whole entry, looked up): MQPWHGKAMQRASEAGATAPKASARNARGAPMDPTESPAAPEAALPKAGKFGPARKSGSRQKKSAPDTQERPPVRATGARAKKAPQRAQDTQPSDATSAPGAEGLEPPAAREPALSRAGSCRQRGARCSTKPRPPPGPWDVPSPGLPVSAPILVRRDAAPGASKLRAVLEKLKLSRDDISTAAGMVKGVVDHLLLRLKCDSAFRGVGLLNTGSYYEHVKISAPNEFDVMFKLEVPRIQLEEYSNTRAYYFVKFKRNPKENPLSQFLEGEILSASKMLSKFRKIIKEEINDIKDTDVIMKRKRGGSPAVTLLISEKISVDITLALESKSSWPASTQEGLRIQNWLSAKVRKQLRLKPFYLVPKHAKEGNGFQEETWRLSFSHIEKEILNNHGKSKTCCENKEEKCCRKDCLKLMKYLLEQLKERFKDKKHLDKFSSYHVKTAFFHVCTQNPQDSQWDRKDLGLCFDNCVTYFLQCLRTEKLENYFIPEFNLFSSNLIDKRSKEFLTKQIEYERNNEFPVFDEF
Target sequence in this assay (Q96SW2 whole entry, looked up): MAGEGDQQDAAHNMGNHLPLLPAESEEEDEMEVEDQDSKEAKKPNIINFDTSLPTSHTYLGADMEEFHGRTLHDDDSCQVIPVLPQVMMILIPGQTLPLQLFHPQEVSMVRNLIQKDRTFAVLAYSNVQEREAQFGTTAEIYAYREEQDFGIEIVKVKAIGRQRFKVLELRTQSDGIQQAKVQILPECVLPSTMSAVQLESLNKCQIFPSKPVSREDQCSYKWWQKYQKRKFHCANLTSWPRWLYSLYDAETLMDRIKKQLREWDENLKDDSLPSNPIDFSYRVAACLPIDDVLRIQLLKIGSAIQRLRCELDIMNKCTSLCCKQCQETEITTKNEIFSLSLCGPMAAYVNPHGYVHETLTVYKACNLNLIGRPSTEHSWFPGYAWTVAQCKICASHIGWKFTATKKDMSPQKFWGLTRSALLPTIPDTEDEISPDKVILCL

[3] = Drug distribution in male C57BL/6 mouse colon at 20 mg/kg, ip measured after 2 to 24 hrs by LC-MS/MS analysis; type: ADME, organism-based; settings: in vivo, time 2-24 hrs
[4] = Downregulation of cGAS protein level in human THP-1 cells at 10 uM incubated for 48 hrs by MS-based LFQ whole proteome analysis relative to control; type: functional
[5] = tested on: THP1-Lucia ISG; experiment: Potency index, ratio of 1-(6,7-dichloro-9-(1-methyl-1H-pyrazol-3-yl)-1,3,4,5-tetrahydro-2H-pyrido[4,3-b]indol-2-yl)-2-hydroxyethan-1-one IC50 to test compound IC50 for inhibition of dsDNA-induced cGAS signaling pathway in human THP1-Lucia ISG cells preincubated with compound for 24 hrs followed by HT-DNA addition and measured after 24 hrs by QUANTI-Luc luciferase reagent based assay; type: cell-based; settings: time 48.0 hrs
[6] = target: T2, Protein cereblon/Cyclic GMP-AMP synthase (Mus musculus) (UniProt Q8C6L5+Q8C7D2); experiment: In vivo inhibition of cGAS signaling pathway in DSS-induced ulcerative colitis C57BL/6 mouse model assessed as reduction in IRF3 phosphorylation level in colon preadministered with DSS for 7 days followed by replacement with ultrapure water for 3 days with subsequent intraperitoneal compound administration starting from day 4 to 10 and measured on day 11 by Western blot analysis; type: functional, organism-based; settings: dose 20-50 mg/kg/day, route ip, time 8.0 day
[7] = tested on: Mus musculus; experiment: Anti-inflammatory activity in DSS-induced ulcerative colitis C57BL/6 mouse model assessed as normal morphological appearance of spleen at 20 to 50 mg/kg/day, ip preadministered with DSS for 7 days followed by replacement with ultrapure water for 3 days with subsequent compound administration starting from day 4 to 10 and measured on day 11 by H and E staining based analysis; type: functional, organism-based; settings: dose 20-50 mg/kg/day, time 8.0 day
[8] = target: T1, Protein cereblon/Cyclic GMP-AMP synthase; experiment: PROTAC activity at CRBN/cGAS in human THP-1 cells assessed as induction of cGAS degradation at 10 uM preincubated with MG132 for 2 hrs followed by compound addition and measured after 48 hrs by Western blot analysis; type: cell-based
Target sequence in this assay (Q8N884 whole entry, looked up): as the sequence (Q8N884 whole entry, looked up) above
Target sequence in this assay (Q96SW2 whole entry, looked up): as the sequence (Q96SW2 whole entry, looked up) above

[9] = Cytotoxicity against human THP1-Lucia ISG cells assessed as reduction in cell viability at >30 uM incubated for 48 hrs by CCK8 assay; type: toxicity, cell-based
[10] = target: T1, Protein cereblon/Cyclic GMP-AMP synthase; experiment: PROTAC activity at CRBN/cGAS in human THP-1 cells assessed as induction of cGAS degradation at 10 uM by Western blot analysis; type: cell-based; settings: time 1-24 hrs
Target sequence in this assay (Q8N884 whole entry, looked up): as the sequence (Q8N884 whole entry, looked up) above
Target sequence in this assay (Q96SW2 whole entry, looked up): as the sequence (Q96SW2 whole entry, looked up) above

[11] = tested on: Mus musculus; experiment: Anti-inflammatory activity in DSS-induced ulcerative colitis C57BL/6 mouse model assessed as reduction in histopathological score of colon at 20 to 50 mg/kg/day, ip preadministered with DSS for 7 days followed by replacement with ultrapure water for 3 days with subsequent compound administration starting from day 4 to 10 and measured on day 11; type: functional, organism-based; settings: dose 20-50 mg/kg/day, time 8.0 day
[12] = tested on: Mus musculus; experiment: Anti-inflammatory activity in DSS-induced ulcerative colitis C57BL/6 mouse model assessed as reduction in IL-6 mRNA level in colon at 20 to 50 mg/kg/day, ip preadministered with DSS for 7 days followed by replacement with ultrapure water for 3 days with subsequent compound administration starting from day 4 to 10 and measured on day 11 by qRT-PCR analysis; type: functional, organism-based; settings: dose 20-50 mg/kg/day, time 8.0 day
[13] = target: T1, Protein cereblon/Cyclic GMP-AMP synthase; experiment: PROTAC activity at CRBN/cGAS in human THP-1 cells assessed as induction of cGAS degradation preincubated with compound for 40 hrs followed by HT-DNA stimulation and measured after 8 hrs by Western blot analysis; type: cell-based
[14] = Cytotoxicity against mouse RAW-Lucia ISG cells assessed as reduction in cell viability at >30 uM incubated for 48 hrs by CCK8 assay; type: toxicity, cell-based
[15] = tested on: Mus musculus; experiment: Anti-inflammatory activity in DSS-induced ulcerative colitis C57BL/6 mouse model assessed as […] at 20 to 50 mg/kg/day, ip preadministered with DSS for 7 days followed by replacement with ultrapure water for 3 days with subsequent compound administration starting from day 4 to 10 and measured on day 11; type: functional, organism-based; settings: dose 20-50 mg/kg/day, time 8.0 day
[16] = tested on: Mus musculus; experiment: Anti-inflammatory activity in DSS-induced ulcerative colitis C57BL/6 mouse model assessed as reduction in TNF-alpha secretion in colon at 20 to 50 mg/kg/day, ip preadministered with DSS for 7 days followed by replacement with ultrapure water for 3 days with subsequent compound administration starting from day 4 to 10 and measured on day 11 by ELISA; type: functional, organism-based; settings: dose 20-50 mg/kg/day, time 8.0 day
[17] = target: T2, Protein cereblon/Cyclic GMP-AMP synthase (Mus musculus); experiment: In vivo inhibition of cGAS signaling pathway in DSS-induced ulcerative colitis C57BL/6 mouse model assessed as reduction in cGAS protein level in colon preadministered with DSS for 7 days followed by replacement with ultrapure water for 3 days with subsequent intraperitoneal compound administration starting from day 4 to 10 and measured on day 11 by Western blot analysis; type: functional, organism-based; settings: dose 20-50 mg/kg/day, route ip, time 8.0 day
[18] = (§1) Inhibition of dsDNA-induced cGAS signaling pathway in human THP1-Lucia ISG cells preincubated with compound for 24 hrs followed by HT-DNA addition and measured after 24 hrs by QUANTI-Luc luciferase reagent based assay; type: cell-based
[19] = tested on: THP1-Lucia ISG; experiment: as §1; type: cell-based; settings: time 48.0 hrs
[20] = Half-life in male C57BL/6 mouse at 1 mg/kg, iv measured after 24 hrs by LC-MS/MS analysis; type: ADME, organism-based; settings: in vivo
[21] = tested on: RAW264.7; experiment: Inhibition of ds-DNA induced cGAS-STING signaling pathway in mouse RAW264.7 cells assessed as reduction in TBK1 phosphorylation preincubated with compound for 40 hrs followed by HT-DNA addition and measured after 8 hrs by Western blot analysis; type: cell-based; settings: dose 0.7-20 µM, time 48.0 hrs
[22] = target: Protein cereblon/Cyclic GMP-AMP synthase (Mus musculus, UniProt Q8C6L5+Q8C7D2); experiment: (§2) PROTAC activity at CRBN/cGAS in mouse RAW264.7 cells assessed as induction of cGAS degradation preincubated with compound for 40 hrs followed by HT-DNA stimulation and measured after 8 hrs by Western blot analysis; type: cell-based
[23] = target: T2, Protein cereblon/Cyclic GMP-AMP synthase (Mus musculus); experiment: as §2; type: cell-based; settings: time 48.0 hrs
[24] = target: T2, Protein cereblon/Cyclic GMP-AMP synthase (Mus musculus); experiment: In vivo inhibition of cGAS signaling pathway in DSS-induced ulcerative colitis C57BL/6 mouse model assessed as reduction in STING phosphorylation level in colon preadministered with DSS for 7 days followed by replacement with ultrapure water for 3 days with subsequent intraperitoneal compound administration starting from day 4 to 10 and measured on day 11 by Western blot analysis; type: functional, organism-based; settings: dose 20-50 mg/kg/day, route ip, time 8.0 day
[25] = tested on: THP-1; experiment: Downregulation of CXCL10 mRNA expression in human THP-1 cells preincubated with compound for 40 hrs followed by HT-DNA addition and measured after 8 hrs by qRT-PCR analysis; type: functional, cell-based; settings: dose 1.25-10 µM, time 48.0 hrs
[26] = tested on: THP-1; experiment: Downregulation of IFNB mRNA expression level in cGAMP-induced human THP-1 cells at 20 uM preincubated with compound for 12 hrs followed by cGAMP addition and measured after 8 hrs by RT-qPCR analysis; type: functional, cell-based; settings: time 20.0 hrs

T2 sequence (Q8C6L5 whole entry, looked up): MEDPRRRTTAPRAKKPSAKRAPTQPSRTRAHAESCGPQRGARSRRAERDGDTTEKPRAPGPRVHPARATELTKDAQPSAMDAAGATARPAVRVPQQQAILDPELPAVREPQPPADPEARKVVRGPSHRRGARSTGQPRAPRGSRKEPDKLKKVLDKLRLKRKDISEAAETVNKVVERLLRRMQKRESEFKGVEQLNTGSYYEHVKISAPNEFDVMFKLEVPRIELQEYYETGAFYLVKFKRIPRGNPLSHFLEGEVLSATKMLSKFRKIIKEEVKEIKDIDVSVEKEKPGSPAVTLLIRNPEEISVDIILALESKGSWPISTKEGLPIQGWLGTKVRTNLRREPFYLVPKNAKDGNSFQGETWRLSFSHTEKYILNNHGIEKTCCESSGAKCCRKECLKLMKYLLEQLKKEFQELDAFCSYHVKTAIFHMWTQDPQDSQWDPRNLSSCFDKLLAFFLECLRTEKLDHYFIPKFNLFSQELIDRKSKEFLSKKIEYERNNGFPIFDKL
T2 sequence (Q8C7D2 whole entry, looked up): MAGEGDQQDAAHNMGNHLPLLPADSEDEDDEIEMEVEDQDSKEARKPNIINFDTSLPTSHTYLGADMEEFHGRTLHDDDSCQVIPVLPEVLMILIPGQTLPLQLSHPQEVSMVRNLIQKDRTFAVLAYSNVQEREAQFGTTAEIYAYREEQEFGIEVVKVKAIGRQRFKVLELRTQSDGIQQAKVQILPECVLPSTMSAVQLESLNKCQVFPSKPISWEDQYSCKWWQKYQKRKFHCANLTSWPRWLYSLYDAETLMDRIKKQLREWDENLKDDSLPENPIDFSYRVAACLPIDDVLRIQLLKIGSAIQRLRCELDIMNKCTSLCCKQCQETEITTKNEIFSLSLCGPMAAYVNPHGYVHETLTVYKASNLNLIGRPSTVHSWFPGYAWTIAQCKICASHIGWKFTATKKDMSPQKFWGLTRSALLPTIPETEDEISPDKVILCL
Protein cereblon/Cyclic GMP-AMP synthase (Mus musculus, UniProt Q8C6L5+Q8C7D2), sequence (Q8C6L5 whole entry): as the sequence (Q8C6L5 whole entry, looked up) above
Protein cereblon/Cyclic GMP-AMP synthase (Mus musculus, UniProt Q8C6L5+Q8C7D2), sequence (Q8C7D2 whole entry): as the sequence (Q8C7D2 whole entry, looked up) above

In the case of `Cn1ccc(-c2cc(Cl)c(Cl)c3[nH]c4c(c23)CN(C(=O)CNC(=O)CCCC#Cc2cccc3c2CN(C2CCC(=O)NC2=O)C3=O)CC4)n1` (configuration not stated), the inhibition [1] is reported as “Dose-dependent-effect”, the Activity [2] is reported as 78.9% and the Drug uptake [3] is reported as “Active”. The Activity [4] was over 80%, the Ratio IC50 [5] was 3 and the inhibition [6] was “Dose-dependent-effect”. For the same compound, the Activity [7] was “Active”, the Activity [8] was “inactive” and the Activity [9] was “Toxic”. For the same compound, the Activity [10] was “Time-dependent-effect”, the Activity [11] was “Active” and the Activity [12] was “Active”. The DC50 [13] was 900 nM, the Activity ([13]; time 48.0 hrs) was “Dose-dependent-effect” and the Activity [14] was “Toxic”. For the same compound, the Activity [15] was “Active”, the Activity [16] was “Active” and the inhibition [17] was “Dose-dependent-effect”. For the same compound, the IC50 [18] was 1800 nM, the inhibition [19] was “Dose-dependent-effect” and the half-life [20] was 180 min. The inhibition [21] was “Dose-dependent-effect”, the DC50 [22] was 4.6 µM and the Activity [23] was “Dose-dependent-effect”. For the same compound, the inhibition [24] was “Dose-dependent-effect”, the Activity [25] was “Dose-dependent-effect” and the Activity [26] was “inactive”.
